{
  "source": "patent US7781594B2",
  "about": "“5-(4-methanesulfonyl-phenyl)-thiazole derivatives for the treatment of acute and chronic inflammatory diseases” (Faes Farma, S.A., priority 2008, dated 2010)",
  "format_in_all_cases": "cell-based, human",
  "key": {"IFN-gamma": {"system": "IFN-gamma", "experiment": "IFN-gamma production by PBMC from patients with rheumatoid arthritis, CBA", "description": "(§1) CBA protocol was followed according to the manufacturer's instructions. The election of microparticles was performed following the summary of FIG. 1.\n(§2) The acquisition on samples was performed with the BD FACS Array Bioanalyser System (FACSArray, Becton Dickinson, San José, Calif., USA) and the analysis of the results was completed with the software FCAP Array (Becton Dickinson) in a PC computer.\nBriefly, the experimental protocol consisted of a plate pre-washing out with Wash Buffer. After decantation, the mixture of capture microparticles was re-suspended in the vortex. Standards and samples were added in the adequate dilution. After permanent stirring incubation during 1 h, the PE detection reagent was added and incubated again during 2 h at room temperature. […]\nPBMC (5×10^4 cells/well) from 7 patients with rheumatoid arthritis were cultured in duplicate 200 μl of complete medium supplement with the highest solvent concentration (10^−6 M), and 10^−6 M, 10^−7 M and 10^−8 M of compound 12, in the presence and absence either of LPS (10 μg/ml), or anti-CD3 (12.5 ng/ml)+anti-CD28 (⅓×10^5), during 24 hours. Culture supernatants were frozen at −20° C. and IFN-gamma concentration was assessed by BD FACS Array Bioanalyser by using CBA Flex Set, specific to determine IFN-gamma concentration, following the manufacturer instructions."}, "[1]": {"system": "PBMC from healthy volunteers", "experiment": "Proliferative response of PBMC, 3H-thymidine incorporation", "conditions": "absence or presence of PHA, PHA plus IL-2, or anti-CD3 + anti-CD28, 4 days, FIGS. 11a and 11b", "description": "Faced against a mitogen stimulation, lymphocytes suffer a blastogenesis and cellular differentiation process. The method used to quantify the cellular proliferation was the assay of the incorporation of ^3[H]-Thymidine to the DNA de novo synthesized, and the emission of betha-radiation from the cellular cultures dried extracts (to which the tritiated base was added) was detected before its ending and harvesting. In the different experiments performed to study the proliferation, the purified cellular preparations were incubated in 96 microwells plain bottom plates at concentrations of 5×10^4 cells/well (200 μl final volume), in the presence of different concentrations of various mitogens with triplicate repetitions and along 4 days of culture.\nThe response to a specific stimuli depended on the density and cell type studied, as well as of the culture time and of the mitogenic agent concentration. […]\nPBMC was cultured during 4 days (50,000 cells per well) at 37° C. and 5% CO2 atmosphere (Cell incubator HERA Cell 150, Thermoscientific, Thermoelectron, 63505 Lagenselbold, GE) in complete culture medium. […] The DNA-incorporated radioactive was quantified by using a betha particles counter Wallac Oy."}, "IL-8": {"system": "IL-8", "experiment": "IL-8 production by PBMC from patients with rheumatoid arthritis, CBA", "description": "as §1, §2\nBriefly, the experimental protocol consisted of a plate pre-washing out with Wash Buffer. After decantation, the mixture of capture microparticles was re-suspended in the vortex. Standards and samples were added in the adequate dilution. After permanent stirring incubation during 1 h, the PE detection reagent was added and incubated again during 2 h at room temperature. After a washing-out, the acquisition was performed in the flow cytometer.\nThe effect on IL-8 production by PBMC from patients with rheumatoid arthritis was also studied. […] Culture supernatants were frozen at −20° C. and IL-8 concentration was quantified by BD FACS Array Bioanalyser by using CBA Flex Set, specific to determine IL-8 concentration, following the manufacturer instructions."}},
  "data": [
    {"smiles": "Cc1nc(OC2CCCC2)c(-c2ccc(S(C)(=O)=O)cc2)s1", "note": "[Compound 12, 4-cyclopentyloxy-5-(4-methylsulfonyl-phenyl)-2-methyl-thiazole]", "values": [
      {"measurement": "Effect on IFN-gamma production by PBMC stimulated with anti-CD3 and anti-CD28", "setting": "IFN-gamma; patients with rheumatoid arthritis, 10^−6 M, 10^−7 M and 10^−8 M, p<0.05, FIG. 6", "value": "significantly lowered"},
      {"measurement": "Effect on IFN-gamma secretion by PBMC, spontaneous or LPS-induced", "setting": "IFN-gamma; printed 'from healthy volunteers' in the paragraph on patients with rheumatoid arthritis", "value": "modified neither the spontaneous IFN-gamma secretion nor the LPS-induced"},
      {"measurement": "Effect on the proliferative response of PBMC", "setting": "[1]", "value": "did not significantly modify"},
      {"measurement": "Effect on IL-8 production by PBMC, spontaneous or anti-CD3 and anti-CD28 induced", "setting": "IL-8", "value": "neither modified the spontaneous IL-8 production nor that induced by the combination of monoclonal antibodies anti-CD3 and anti-CD28"},
      {"measurement": "Effect on LPS-induced production of IL-8 in PBMC", "setting": "IL-8; 10^−6 M and 10^−8 M, FIG. 8", "value": "significantly inhibited"}
    ]}
  ]
}
